Data published in US12428422B2, “Purine derivatives as SIK-3 inhibitors” (RHIZEN PHARMACEUTICALS AG, priority 2020, dated 2025).

Tests used:
SK-OV-3 cell lines = assay: MTT cell growth inhibition, combination with talzoparib, SK-OV-3; format: cell-based; conditions: combined with talzoparib, 72 hrs
Procedure: (§1) Assay 5: Combination of Compound M1 with Standard Agents in Different Cell Lines
(§2) Day 0 • The cells were pelleted and counted. • Cells were plated at desired density (100 μl/well) in complete media in a 96-well plate in triplicates. A column for Day “0” reading was also seeded. (18-20 hrs after initial plating and before addition of the inhibitors) • Plates were incubated at 37° C. and 5% CO2. Day 1 • 10 μl of MTT (5 mg/ml) were added to the column designated for Day “0”. It was mixed well and incubated at 37° C. and 5% CO2 for 3.5 h. Cells were pelleted down at 4000 rpm for 10 minutes. • Media was aspirated out and 150 μl of DMSO were added to the cells and mixed by pipetting to dissolve the crystals • The plate was read at A560 nm and A640 nm. Day 2 • A series of dilutions of the inhibitors were initially made in 100% DMSO and further diluted in growth medium. • Cells were treated with either single agent of DMSO, compound M1, talzoparib, and combination of compound M1 and talzoparib (OVCAr-3 and SK-OV-3). […]
(§3) The plate was read at A560 nm and A640 nm.
(§4) Reference absorbance values were subtracted from test absorbance values. Day 0 values were subtracted from final day absorbance values for determining cell growth. % Cell growth inhibitions were calculated.

6 isoform of PI3K = 6 isoform of PI3K (Homo sapiens, UniProt O00329); assay: Activity against PI3K delta isoform (printed "6"); conditions: independently synthesized compound
SIK3 (human) = SIK3 (human) (Homo sapiens, UniProt Q9Y2K2); assay: Enzymatic radiometric assay against human salt-inducible kinase-3 (SIK3); format: biochemical
Procedure: Assay 1: Determination of IC50 of Compound M1 Against Human Salt-Inducible Kinase-3 (SIK3) Using an Enzymatic Radiometric Assay
• SIK3 (human) was incubated with 8 mM MOPS pH 7.0, 0.2 mM EDTA, 100 uM of the peptide […] (Substrate), 10 mM Mg Acetate and [gamma-33P-ATP] (specific activity and concentration as required) in the presence of Compound M1. • The reaction was initiated by the addition of the Mg/ATP mix. • After incubation for 40 minutes at room temperature, the reaction was stopped by the addition of phosphoric acid to a concentration of 0.5%. • 10 μL of the reaction mixture was then spotted onto a P30 filtermat and washed four times for 4 minutes in 0.425% phosphoric acid and once in methanol prior to drying and scintillation counting. • The IC50 value was calculated using GraphPad Prism.

MDA-MB-231 cell lines = assay: MTT cell growth inhibition, combination with taxol, MDA-MB-231; format: cell-based; conditions: combined with taxol, 72 hrs
Procedure: Assay 6: Combination of Compound M1 with Standard Agents in Different Cell Lines
Day 0 • The cells were pelleted and counted. • Cells were plated at desired density (100 μl/well) in complete media in a 96-well plate in triplicates. A column for Day “0” reading was also seeded. (18-20 hrs after initial plating and before addition of the inhibitors) • Plates were incubated at 37° C. and 5% CO2. Day 1 • 10 μl of MTT (5 mg/ml) were added to the column designated for Day “0”. It was mixed well and incubated at 37° C. and 5% CO2 for 3.5 h. Cells were pelleted down at 4000 rpm for 10 minutes. • Media was aspirated out and 150 μl of DMSO were added to the cells and mixed by pipetting to dissolve the crystals • The plate was read at A560 nm and A640 nm. Day 2 • A series of dilutions of the inhibitors were initially made in 100% DMSO and further diluted in growth medium. • Cells were treated with either single agent of DMSO, compound M1, taxol, and a combination of compound M1 and taxol (MDA-MB-231, MCF-7, ZR.75.1 and SK-OV-3). […] Crystals were dissolved by repeated pipetting. • The plate was read at A560 nm and A640 nm. […]
as §4

OVCAr-3 cell lines = assay: MTT cell growth inhibition, combination with talzoparib, OVCAR-3; format: cell-based; conditions: combined with talzoparib, 72 hrs
Procedure: as §1, §2, §3, §4

THP-1 cell lines = assay: MTT cell growth inhibition, single agent or combination, THP-1; format: cell-based; conditions: combined with azacytidine or ventoclax, 72 hrs
Procedure: Assay 4: Compound M1 as a Single Agent or in Combination with Azacytidine, or Venetoclax was Determined in the AML Lines: THP-1, U937, and MV-4-11.
Day 0 • The cells were pelleted and counted. • Cells were plated at desired density (100 μl/well) in complete media in a 96-well plate in triplicates. A column for Day “0” reading was also seeded (18-20 hrs after initial plating and before addition of the inhibitors) • Plates were incubated at 37° C. and 5% CO2. Day 1 • 10 μl of MTT (5 mg/ml) were added to the column designated for Day “0”. It was mixed well and incubated at 37° C. and 5% CO2 for 3.5 h. Cells were pelleted down at 4000 rpm for 10 minutes. • Media was aspirated out and 150 μl of DMSO were added to the cells and mixed by pipetting to dissolve the crystals • Plate was read at A560 nm and A640 nm. […] Crystals were dissolved by repeated pipetting. • The plate was read at A560 nm and A640 nm. […]
Reference absorbance values were subtracted from test absorbance values. Day 0 values were subtracted from final day absorbance values for determining cell growth. Percent cell growth inhibitions were calculated.

Chain of SIK3 (human) (Q9Y2K2 whole entry): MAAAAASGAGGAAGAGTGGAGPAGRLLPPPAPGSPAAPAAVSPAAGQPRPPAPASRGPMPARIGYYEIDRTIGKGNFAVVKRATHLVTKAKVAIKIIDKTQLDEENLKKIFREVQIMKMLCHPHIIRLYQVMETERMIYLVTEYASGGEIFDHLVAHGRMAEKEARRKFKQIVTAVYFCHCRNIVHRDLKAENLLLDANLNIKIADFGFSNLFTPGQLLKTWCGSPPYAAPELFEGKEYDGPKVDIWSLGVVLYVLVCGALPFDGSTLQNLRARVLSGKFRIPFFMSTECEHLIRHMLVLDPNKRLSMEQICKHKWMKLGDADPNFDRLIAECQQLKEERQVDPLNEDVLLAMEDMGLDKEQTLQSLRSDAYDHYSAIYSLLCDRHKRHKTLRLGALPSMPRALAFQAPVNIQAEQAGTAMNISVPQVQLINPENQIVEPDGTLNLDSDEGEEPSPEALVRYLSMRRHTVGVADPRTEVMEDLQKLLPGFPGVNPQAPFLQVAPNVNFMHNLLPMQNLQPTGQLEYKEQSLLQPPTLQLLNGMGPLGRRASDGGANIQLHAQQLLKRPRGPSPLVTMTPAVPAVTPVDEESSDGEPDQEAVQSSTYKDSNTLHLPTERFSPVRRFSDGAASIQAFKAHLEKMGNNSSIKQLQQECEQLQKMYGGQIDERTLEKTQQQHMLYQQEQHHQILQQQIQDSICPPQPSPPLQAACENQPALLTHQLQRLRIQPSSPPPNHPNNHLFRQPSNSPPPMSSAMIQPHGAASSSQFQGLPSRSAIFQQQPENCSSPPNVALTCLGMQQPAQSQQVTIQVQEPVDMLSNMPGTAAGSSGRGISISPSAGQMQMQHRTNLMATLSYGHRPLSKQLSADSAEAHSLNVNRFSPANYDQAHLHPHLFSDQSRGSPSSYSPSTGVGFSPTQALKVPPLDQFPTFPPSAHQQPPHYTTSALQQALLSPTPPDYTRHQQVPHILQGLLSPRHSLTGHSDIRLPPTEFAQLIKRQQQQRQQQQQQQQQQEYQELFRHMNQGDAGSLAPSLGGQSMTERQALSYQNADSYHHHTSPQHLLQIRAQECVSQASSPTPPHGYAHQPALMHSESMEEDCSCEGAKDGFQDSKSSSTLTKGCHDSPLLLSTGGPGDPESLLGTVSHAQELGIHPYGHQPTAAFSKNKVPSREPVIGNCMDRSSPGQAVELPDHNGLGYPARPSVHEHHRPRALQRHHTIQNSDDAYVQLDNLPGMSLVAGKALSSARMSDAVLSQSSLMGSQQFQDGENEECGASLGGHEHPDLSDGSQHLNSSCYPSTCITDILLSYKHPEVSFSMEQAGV
Chain of 6 isoform of PI3K (O00329 whole entry, canonical isoform): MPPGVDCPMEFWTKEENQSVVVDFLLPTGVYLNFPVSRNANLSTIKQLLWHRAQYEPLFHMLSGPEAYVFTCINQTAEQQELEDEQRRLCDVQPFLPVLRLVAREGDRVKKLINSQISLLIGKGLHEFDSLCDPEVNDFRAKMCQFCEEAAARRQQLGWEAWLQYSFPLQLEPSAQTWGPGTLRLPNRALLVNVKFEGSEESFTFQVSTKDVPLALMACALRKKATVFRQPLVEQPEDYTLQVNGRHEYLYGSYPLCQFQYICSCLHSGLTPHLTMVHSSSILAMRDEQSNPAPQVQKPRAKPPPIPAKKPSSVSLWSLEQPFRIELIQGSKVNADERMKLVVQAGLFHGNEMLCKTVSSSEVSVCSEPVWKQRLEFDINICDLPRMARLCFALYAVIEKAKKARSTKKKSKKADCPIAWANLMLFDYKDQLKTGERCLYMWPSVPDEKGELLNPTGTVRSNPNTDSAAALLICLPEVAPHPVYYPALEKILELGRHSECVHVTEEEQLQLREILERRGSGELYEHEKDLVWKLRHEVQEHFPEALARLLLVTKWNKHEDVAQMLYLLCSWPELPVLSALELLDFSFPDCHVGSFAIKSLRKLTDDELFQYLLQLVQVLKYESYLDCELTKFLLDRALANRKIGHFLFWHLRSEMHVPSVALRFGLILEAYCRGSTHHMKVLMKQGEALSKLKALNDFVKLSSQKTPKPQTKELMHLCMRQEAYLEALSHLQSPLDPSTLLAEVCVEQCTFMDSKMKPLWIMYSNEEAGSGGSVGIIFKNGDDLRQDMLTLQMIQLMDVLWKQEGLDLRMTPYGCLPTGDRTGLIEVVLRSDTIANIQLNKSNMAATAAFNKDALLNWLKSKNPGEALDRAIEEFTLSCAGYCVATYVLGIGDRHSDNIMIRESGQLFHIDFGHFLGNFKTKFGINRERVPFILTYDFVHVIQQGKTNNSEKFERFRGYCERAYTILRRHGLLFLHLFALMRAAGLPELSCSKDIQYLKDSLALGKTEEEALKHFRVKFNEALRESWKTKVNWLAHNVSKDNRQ
Chain of 6 isoform of PI3K (P27986 whole entry partner, canonical isoform): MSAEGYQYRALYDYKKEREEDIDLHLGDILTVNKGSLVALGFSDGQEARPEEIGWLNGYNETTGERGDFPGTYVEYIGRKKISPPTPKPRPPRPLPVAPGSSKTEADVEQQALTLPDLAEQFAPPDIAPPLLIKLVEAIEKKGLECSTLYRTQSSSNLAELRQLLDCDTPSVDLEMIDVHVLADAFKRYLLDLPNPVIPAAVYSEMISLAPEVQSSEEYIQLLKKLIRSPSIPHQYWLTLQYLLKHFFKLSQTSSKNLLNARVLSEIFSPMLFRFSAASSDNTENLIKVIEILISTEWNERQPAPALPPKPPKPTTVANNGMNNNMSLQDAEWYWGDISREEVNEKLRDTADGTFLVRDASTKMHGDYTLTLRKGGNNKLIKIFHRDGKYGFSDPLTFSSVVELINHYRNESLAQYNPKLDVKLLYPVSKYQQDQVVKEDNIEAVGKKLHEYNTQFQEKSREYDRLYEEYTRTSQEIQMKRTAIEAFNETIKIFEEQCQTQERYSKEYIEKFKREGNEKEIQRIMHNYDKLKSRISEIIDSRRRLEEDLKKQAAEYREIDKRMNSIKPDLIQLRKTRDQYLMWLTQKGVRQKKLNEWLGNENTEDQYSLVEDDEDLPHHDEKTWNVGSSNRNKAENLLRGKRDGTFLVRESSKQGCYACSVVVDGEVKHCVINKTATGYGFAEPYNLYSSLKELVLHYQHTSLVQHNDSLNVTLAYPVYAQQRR

CC[C@H](Nc1ncnc2[nH]c(O)nc12)c1oc2ccccc2c(=O)c1-c1cccc(F)c1 [Compound M1, (S)-3-(3-fluorophenyl)-2-(1-((8-hydroxy-9H-purin-6-yl)amino)propyl)-4H-chromen-4-one]
cell growth inhibition in combination (SK-OV-3 cell lines): synergistic results | activity against the 6 isoform of PI3K (6 isoform of PI3K): inactive | activity against salt-inducible kinase 3 (SIK3) (SIK3 (human)): exhibit activity | SIK-3 inhibitory potency compared among compounds M, M1 and M2 (SIK3 (human); of the three compounds M, M1 and M2): most potent SIK-3 inhibitor | cell growth inhibition in combination (MDA-MB-231 cell lines): synergistic results | cell growth inhibition in combination (OVCAr-3 cell lines): synergistic results | cell growth inhibition in combination (THP-1 cell lines): synergistic activity
